This is an account of results in patent publication US10131652B2, “Pyrimidinyloxy benzene derivatives as herbicides” (E. I. DU PONT DE NEMOURS AND COMPANY, priority 2014, dated 2018).

Where two headings read alike, the source gives them in different places.

Holding throughout (assay): Test B pre-/postemergence plant response
Common to all, as to assay type: in vivo

Test [1] relates to velvetleaf (Abutilon theophrasti). The conditions noted are these: Abutilon theophrasti, 240 h, read-out: Plant response rating, Velvetleaf; for pest or weed control at 125 g/ha: 125 g ai/ha; for pest or weed control at 500 g/ha: 500 g ai/ha. The gist of the method: (§1)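 Steps: plant seeds in loam soil–sand mix; spray soil preemergence, and in parallel spray 2–10 cm one- to two-leaf plants postemergence; hold ~10 days in greenhouse; visually rate injury against untreated controls (0 = no effect, 100 = complete control).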

Test [2] has as its system morningglory (Ipomoea spp.). Conditions: Ipomoea, 240 h, read-out: Plant response rating, Morningglory; for pest or weed control at 125 g/ha: 125 g ai/ha; for pest or weed control at 500 g/ha: 500 g ai/ha. A digest of the protocol: as §1
Test [3] deals with large (Lg) crabgrass (Digitaria sanguinalis). Conditions: Digitaria sanguinalis, 240 h, read-out: Plant response rating, Crabgrass, Large; for pest or weed control at 125 g/ha: 125 g ai/ha; for pest or weed control at 500 g/ha: 500 g ai/ha. The gist of the method: as §1
Setting [4] is: post-emergence, postemergence, 0 to 100 scale, 0 no effect, 100 complete control.
The mark [5] stands for this setting: post-emergence, Postemergence, 0 to 100 scale (0 no effect, 100 complete control).
The mark [6] stands for this setting: pre-emergence, Preemergence, 0 to 100 scale where 0 is no effect and 100 is complete control.
Where [7] appears, read: pre-emergence, Preemergence, 0 to 100 scale (0 no effect, 100 complete control).

Consider `Cc1ccc(Oc2ncc(Cl)cn2)c(-c2ccnc(C(F)(F)F)c2)c1` [Compound 24, 5-chloro-2-[4-methyl-2-[2-(trifluoromethyl)-4-pyridinyl]phenoxy]pyrimidine], for which the pest or weed control at 125 g/ha in test [1] (setting [4]) came to 40%; in test [1] (setting [6]), 0%; in test [2] (setting [4]), 50%; in test [2] (setting [6]), 0%; in test [3] (setting [4]), 80%; in test [3] (setting [6]), 100%. In addition, the pest or weed control at 500 g/ha in test [1] (setting [5]) was determined as 70%; in test [1] (setting [7]), 0%; in test [2] (setting [5]) it was 100%; in test [2] (setting [7]) it was 0%; in test [3] (setting [5]), 90%; in test [3] (setting [7]), 100%.

On to `Cc1ccc(Oc2ncc(Cl)cn2)c(-c2ccc(C(F)(F)F)nc2)c1` [Compound 22, 5-chloro-2-[4-methyl-2-[6-(trifluoromethyl)-3-pyridinyl]phenoxy]pyrimidine], for which the pest or weed control at 125 g/ha is 50% in test [1] (setting [4]); 0% in test [1] (setting [6]); 0% in test [2] (setting [4]); 0% in test [2] (setting [6]); 0% in test [3] (setting [4]); 0% in test [3] (setting [6]). Also, the pest or weed control at 500 g/ha in test [1] (setting [5]) is 60%; in test [1] (setting [7]), 0%; in test [2] (setting [5]), 10%; in test [2] (setting [7]) it was 0%; in test [3] (setting [5]) it was 10%; in test [3] (setting [7]), 0%.

For the compound `FC(F)(F)c1ccc(-c2ccccc2Oc2ncc(Cl)cn2)nc1` [Compound 27, 5-chloro-2-[2-[5-(trifluoromethyl)-2-pyridinyl]phenoxy]pyrimidine], the pest or weed control at 125 g/ha came out at 70% in test [1] (setting [4]); 20% in test [1] (setting [6]); 10% in test [2] (setting [4]); 0% in test [2] (setting [6]); 20% in test [3] (setting [4]); 80% in test [3] (setting [6]). Further, the pest or weed control at 500 g/ha in test [1] (setting [5]) was found to be 100%; in test [1] (setting [6]) it was 60%; in test [2] (setting [5]), 50%; in test [2] (setting [6]), 0%; in test [3] (setting [5]), 90%; in test [3] (setting [6]), 100%.
